Patent US8592581B2, “Trisubstituted purine derivatives” (Cyclacel Limited, priority 2007, dated 2013)

How the values were obtained:
[1] = system: MDA-MB-436; experiment: Alamar blue cytotoxicity assay MDA-MB-436; assay type: cell-based; conditions: Homo sapiens, 72 hours, read-out: cellular cytotoxicity IC50 MDA-MB-436
Procedure: (§1) In order to determine the cellular potency of the compounds, the cytotoxicity of each compound was determined against a range of cell lines. Standard cytotoxicity methods were performed as follows: cells were seeded in 96-well plates appropriately for their doubling time (2-5000 cells per well) in RPMI or DMEM media containing 10% FCS and incubated overnight at 37° C., 5% CO2. The media was removed and 100 μl fresh media containing increasing concentrations of appropriate compound was added and the cells incubated for 72 hours at 37° C., 5% CO2. A 10% stock of alamar blue (Roche, Lewes, United Kingdom) was prepared in medium and 100 μl added to the cells which were incubated for 2 hours. Absorbance was measured on the Wallac Victor 2 1420 multi-label counter at 544-595 nm.

[2] = system: Mcl-1; experiment: Mcl-1 downregulation in H460 cells by Western blotting; assay type: cell-based
Procedure: The media was removed and the adherent cells washed with 5 ml PBS. […] Proteins were transferred to nitrocellulose membranes (Schleicher & Schuell, Dassel, Germany) using wet electrophoretic transfer. Membranes were stained with Ponceau S to confirm equal loading before blocking in 5% nonfat milk in PBS with 0.05% Tween 20 (PBSTM) for 2 hours. Membranes were incubated overnight at 4° C. with primary antibody (rabbit polyclonal antibody to Mcl-1, Santa Cruz), diluted 1:1000 in PBSTM. Membranes were washed 2×5 minute followed by 2×10 minute in PBS and 0.05% Tween 20 (PBST) and incubated for 1 hour in PBSTM containing horseradish peroxidase-conjugated secondary antibody. Membranes were washed as before and incubated with enhanced chemiluminescence solution (Amersham) and exposed to X-ray film (Amersham).
In a second experiment the effect of additional compounds on Mcl-1 levels was investigated.

[3] = target: CYP3A4 (Homo sapiens (Human), UniProt P08684); experiment: Cytochrome P450 substrate identification (Bactosomes) CYP3A4; assay type: in vitro ADME
CYP3A4, sequence (P08684 whole entry): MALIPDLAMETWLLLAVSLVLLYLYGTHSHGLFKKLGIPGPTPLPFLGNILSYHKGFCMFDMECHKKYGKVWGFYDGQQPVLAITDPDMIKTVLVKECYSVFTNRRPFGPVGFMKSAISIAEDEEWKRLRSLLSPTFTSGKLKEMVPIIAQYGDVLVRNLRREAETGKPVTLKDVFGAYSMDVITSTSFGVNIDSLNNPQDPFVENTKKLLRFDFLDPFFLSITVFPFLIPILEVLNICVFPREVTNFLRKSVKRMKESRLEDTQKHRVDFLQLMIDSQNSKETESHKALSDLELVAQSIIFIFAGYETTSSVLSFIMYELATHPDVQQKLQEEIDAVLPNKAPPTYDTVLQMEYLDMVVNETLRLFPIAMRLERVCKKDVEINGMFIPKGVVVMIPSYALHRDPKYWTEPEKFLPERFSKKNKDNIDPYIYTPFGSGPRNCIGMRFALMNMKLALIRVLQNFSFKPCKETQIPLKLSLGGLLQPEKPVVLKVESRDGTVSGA
Procedure: cDNA expressed human CYP450 enzyme preparations co-expressed with human NADPH cytochrome P450 reductase (Bactosomes™) were supplied by Cypex Ltd. Bactosomes™ (final P450 concentration CYP1A2 100 pmol/mL, CYP2C8 50 pmol/mL, CYP2C9 25 pmol/mL, CYP2C19 100 pmol/mL, CYP2D6 50 pmol/mL and CYP3A4 25 pmol/mL), 0.1M phosphate buffer pH7.4 and test compound (final substrate concentration=5 μM; final DMSO concentration=0.25%) were pre-incubated at 37° C. prior to the addition of NADPH (final concentration=1 mM) to initiate the reaction. Incubations were also performed using control bactosomes (no P450 enzymes present) to reveal any non-enzymatic degradation. The final incubation volume was 25 μL. Compounds known to be metabolised specifically by each CYP450 isoform were used as control compounds.
Each compound was incubated singly for 0, 5, 15, 30 and 45 min with each CYP isoform. The reactions were stopped by the addition of 50 μL methanol containing internal standard at the appropriate time points. The incubation plates were centrifuged at 2500 rpm for 20 min at 4° C. to precipitate the protein. Following protein precipitation, the sample supernatants were combined in cassettes of up to four compounds and analysed using generic LC-MS/MS conditions.
The In peak area ratio (which has been corrected for any loss in the incubations with the control bactosomes) was plotted against time and the gradient of the line determined.
The elimination rate constant (k)=(−gradient)

[4] = target: CDK2/cyclin A (Homo sapiens (Human), UniProt P24941); experiment: In-vitro recombinant kinase assay CDK2/cyclin A; assay type: biochemical; conditions: Table 2; average of duplicate points; read-out: CDK2/Cyclin A Average IC50
Procedure: (§2) To evaluate the in-vitro kinase potency of the compounds, they were screened against CDK 2 and CDK9. Kinase assays were performed in 96-well plates using recombinant CDK/cyclins generated at Cyclacel. Ltd Dundee, UK. CDK2 and CDK9 assays were performed in a total volume of 25 μl in assay buffer (25 mM b-glycerophosphate, 20 mM MOPS, 5 mM EGTA, 1 mM DTT and 1 mM NaVO3, pH 7.4), into which were added 2-4 μg of active enzyme with appropriate substrates (purified histone H1 for CDK2/cyclin E, and CDK2/cyclin A, biotinyl-Ahx-(YSPTSPS)4 for CDK9/cyclin T1). […] CDK2 reactions were stopped by addition of 25 μl of 75 mM phosphoric acid, followed by filtration through P81 filterplates (Whatman Polyfiltronics, Kent, UK). For CDK9, the reaction was stopped by addition of 25 μl of 75 mM phosphoric acid, then 5 μl of 10 mg/ml avidin was added to each well and further incubated for 2 min followed by filtration as per CDK2 assay. After washing 3 times with 75 mM orthophosphoric acid, plates were dried, scintillant added and incorporated radioactivity measured in a scintillation counter (TopCount, Packard Instruments, Pangbourne, Berks, UK). Compounds for kinase assay were made up as 10 mM stocks in DMSO and diluted into 10% DMSO in assay buffer.
as §2

[5] = target: CYP2C9 (Homo sapiens (Human), UniProt P11712); experiment: CYP2C9 inhibition, human liver microsomes, tolbutamide; assay type: in vitro ADME
CYP2C9, sequence (P11712 whole entry): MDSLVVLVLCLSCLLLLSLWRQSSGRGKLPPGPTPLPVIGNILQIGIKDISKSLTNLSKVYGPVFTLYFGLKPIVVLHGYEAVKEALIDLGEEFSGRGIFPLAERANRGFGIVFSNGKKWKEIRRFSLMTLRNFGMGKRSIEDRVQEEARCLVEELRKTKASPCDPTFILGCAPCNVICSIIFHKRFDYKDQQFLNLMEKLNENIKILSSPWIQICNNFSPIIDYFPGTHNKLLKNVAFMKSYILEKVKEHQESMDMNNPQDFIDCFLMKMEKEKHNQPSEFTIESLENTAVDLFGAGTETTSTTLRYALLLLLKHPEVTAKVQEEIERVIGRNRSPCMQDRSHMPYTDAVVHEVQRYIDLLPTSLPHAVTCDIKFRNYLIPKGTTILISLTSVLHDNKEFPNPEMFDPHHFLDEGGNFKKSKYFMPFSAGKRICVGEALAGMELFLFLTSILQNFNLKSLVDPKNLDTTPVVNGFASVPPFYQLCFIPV
Procedure: Six test compound concentrations (0.05, 0.25, 0.5, 2.5, 5, 25 μM in DMSO; final DMSO concentration=0.25%) were incubated with human liver microsomes (1 mg/mL) and NADPH (1 mM) in the presence of the probe substrate tolbutamide (120 μM) for 60 min at 37° C. The selective CYP2C9 inhibitor, sulphaphenazole, was screened alongside the test compounds as a positive control.
(§3) For the CYP1A incubations, the reactions were terminated by the addition of methanol, and the formation of the metabolite, resorufin, was monitored by fluorescence (excitation wavelength=535 nm, emission wavelength=595 nm). For the CYP2C9, CYP2C19, CYP2D6, and CYP3A4 incubations, the reactions were terminated by the addition of methanol containing internal standard. The samples were then centrifuged, and the supernatants were combined, for the simultaneous analysis of 4-hydroxytolbutamide, 4-hydroxymephenyloin, dextrorphan, and 1-hydroxymidazolam plus internal standard by LC-MS/MS using generic LC-MS/MS conditions. Formic acid in deionised water (final concentration=0.1%) was added to the final sample prior to analysis.

[6] = target: CYP1A (Homo sapiens, UniProt P05177); experiment: CYP1A inhibition, human liver microsomes, ethoxyresorufin; assay type: in vitro ADME; conditions: human liver microsomes, probe ethoxyresorufin (0.5 μM), read-out: IC50 (μM) CYP1A
CYP1A, sequence (P05177 2-516 limits assumed): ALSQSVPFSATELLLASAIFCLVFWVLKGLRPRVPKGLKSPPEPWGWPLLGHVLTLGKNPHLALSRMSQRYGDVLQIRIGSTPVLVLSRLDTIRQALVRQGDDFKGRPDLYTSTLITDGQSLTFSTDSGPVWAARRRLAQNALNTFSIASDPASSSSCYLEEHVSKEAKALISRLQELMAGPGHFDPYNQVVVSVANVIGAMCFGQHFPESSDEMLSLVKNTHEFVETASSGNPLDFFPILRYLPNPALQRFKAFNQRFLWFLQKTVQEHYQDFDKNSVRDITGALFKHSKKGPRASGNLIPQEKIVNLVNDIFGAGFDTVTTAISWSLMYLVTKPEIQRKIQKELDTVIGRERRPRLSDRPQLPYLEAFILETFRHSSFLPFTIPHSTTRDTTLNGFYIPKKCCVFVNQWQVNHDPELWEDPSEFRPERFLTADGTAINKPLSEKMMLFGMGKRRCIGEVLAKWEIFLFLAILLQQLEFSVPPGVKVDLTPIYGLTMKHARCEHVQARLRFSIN
Procedure: Six test compound concentrations (0.05, 0.25, 0.5, 2.5, 5, 25 μM in DMSO; final DMSO concentration=0.35%) were incubated with human liver microsomes (0.25 mg/mL) and NADPH (1 mM) in the presence of the probe substrate ethoxyresorufin (0.5 μM) for 5 min at 37° C. The selective CYP1A inhibitor, alpha-naphthoflavone, was screened alongside the test compounds as a positive control.
as §3

[7] = system: Colo205; experiment: Alamar blue cytotoxicity assay Colo205; assay type: cell-based; conditions: Homo sapiens, COLO 205; 72 hours; read-out: cellular cytotoxicity IC50 Colo205
Procedure: as §1

SMILES: CC[C@H](Nc1nc(NCc2cnc(C)cc2C)c2ncn(C(C)C)c2n1)[C@@H](C)O [Compound [1]]
- IC50 [1]: 0.44 µM
- downregulating the levels of Mcl-1 (in words) ([2]; H460 cells, 0.5, 1.5, 4.5 and 13.5 μM, 5 hrs): most effective compound from this group
- concentration at which significant effects on Mcl-1 levels are observed ([2]; H460 cells, 24 hr): 1.5 µM
- substrate of CYP3A4 (in words) ([3]; Bactosomes system): neither a substrate of nor inhibitor of CYP3A4
- half-life at 5 μM ([3]; human, pH 7.4, Bactosomes, 5 μM test compound, up to 45 min, read-out: half life in the presence of CYP3A4): > 45 min
- IC50 [4]: 0.09 µM
- IC50 [5]: 23.8 µM
- IC50 at 5 min [6]: > 25 µM
- IC50 [7]: 0.31 µM
